The term EC50 denotes the concentration giving half of the maximal effect.

A value given as a limit tells only on which side of the number the result lay.

The target of the experiment is T1, hGPR40 (Homo sapiens, UniProt O14842).
T1 construct: expressed in transfected cells
T1 sequence (O14842 whole entry): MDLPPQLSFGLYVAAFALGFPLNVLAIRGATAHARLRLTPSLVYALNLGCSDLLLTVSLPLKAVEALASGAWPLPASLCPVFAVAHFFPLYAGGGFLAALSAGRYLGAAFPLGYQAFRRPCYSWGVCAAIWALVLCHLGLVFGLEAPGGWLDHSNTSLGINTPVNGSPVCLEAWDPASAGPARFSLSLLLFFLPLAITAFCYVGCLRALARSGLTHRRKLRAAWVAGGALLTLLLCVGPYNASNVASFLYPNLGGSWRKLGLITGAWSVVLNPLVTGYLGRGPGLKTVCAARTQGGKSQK
The experiment in a line: Calcium flux assay to detect GPR40 activation. Type of experiment: cell-based. The settings on record: CHO-K cells stably expressing hGPR40; Fluo-4 NW; read for 4 min at 5 s intervals. How it is done: Biological Activity Calium Flux Assay to Detect GPR40 Activation: CHO-K cells stably expressing hGPR40 were selected in a media containing Neomycin/G418. The cells were plated at a concentration of 20,000 cells per well in black 96-well clear bottom tissue culture treated plates. The cells were cultured for 24 h at 37° C. in a humidified 5% CO2 air environment to allow for protein expression. The next day, after removal of media from wells, Fluo-4 NW (Invitrogen) is added at 100 ul/well and the cells were incubated for 30 min at 37° C. and for a further 30 min at RT. All test compounds were diluted to appropriate concentrations in HEPES buffer. Compounds were added to the cells and the wells were read in the BioTEK synergy reader and readings were taken for 4 min with an interval of 5 s.
On the technique in general: Calcium assays in cells follow changes in intracellular calcium, usually with a dye or a luminescent sensor.
With `CO/N=C(/COc1ccc(COc2ccc(-c3c(C(=O)O)noc3C)cc2)cc1)c1ccccc1` [Compound 32, 4-{4-[(4-{[(2E,2Z)-2-(Methoxyimino)-2-phenylethyl]oxy}benzyl)oxy]phenyl}-5-methyl-1,2-oxazole-3-carboxylic acid], the EC50 is > 100 nM.
With `CON=C(COc1ccc(COc2ccc(C(C#N)CC(=O)O)cc2)cc1)c1ccc(C#N)cc1` (mixture of isomers) [Compound 49, Sodium 3-cyano-3-{4-[(4-{[(2E,2Z)-2-(4-cyanophenyl)-2-(methoxyimino)ethyl]oxy}benzyl)oxy]phenyl}propanoate] the figure was < 10 nM; with `CO/N=C(\COc1ccc(COc2ccc(C3CC3C(=O)O)cc2)cc1)c1ccc(C#N)cc1` (single isomer, unassigned) [Compound 79, Sodium 2-{4-[(4-{[(2Z)-2-(4-cyanophenyl)-2-(methoxyimino)ethyl]oxy}benzyl)oxy]phenyl}cyclopropanecarboxylate], > 100 nM.
Next, `CO/N=C(\COc1ccc(COc2ccc(C(C#N)CC(=O)O)cc2)cc1)c1ccccc1` (centres unmarked) [Compound 31, Potassium 3-cyano-3-{4-[(4-{[(2Z)-2-(methoxyimino)-2-phenylethyl]oxy}benzyl)oxy]phenyl}propanoate]: < 10 nM.
Take `N#CC(CC(=O)O)c1ccc(OCc2ccc(OC/C(=N\Oc3ccccc3)c3ccccc3)cc2)cc1` (centres unmarked) [Compound 107, 3-Cyano-3-{4-[(4-{[(2E,2Z)-2-(phenoxyimino)-2-phenylethyl]oxy}benzyl)oxy]phenyl}propanoic acid]: the EC50 is 10 to 100 nM.
Consider `CO/N=C(\COc1ccc(COc2cc(F)c(CCC(=O)O)cc2F)cc1)c1ccccc1` [Compound 86, 3-{2,5-Difluoro-4-[(4-{[(22)-2-(methoxyimino)-2-phenylethyl]oxy}benzyl)oxy]phenyl}propanoic acid], for which the EC50 is > 100 nM.
With `CO/N=C(\COc1ccc(COc2ccc(C(C#N)CC(=O)O)cc2)cc1)c1ccc(OC)cc1` (centres unmarked) [Compound 66, 3-Cyano-3-{4-[(4-{[(2Z)-2-(methoxyimino)-2-(4-methoxyphenyl)ethyl]oxy}benzyl)oxy]phenyl}propanoic acid] the figure was < 10 nM; with `CO/N=C(\COc1ccc(COc2ccc(CCC(=O)O)c(F)c2)cc1)c1ccc(C#N)cc1` [Compound 39], < 10 nM.
Next, `CO/N=C(\COc1ccc(COc2ccc(C(C)(C#N)CC(=O)O)cc2)cc1)c1ccccc1` (centres unmarked) [Compound 59, 3-Cyano-3-{4-[(4-{[(2Z)-2-(methoxyimino)-2-phenylethyl]oxy}benzyl)oxy]phenyl}butanoic acid]: > 100 nM.
With `CO/N=C(\COc1ccc(COc2ccc(C(CC(=O)O)c3ccccc3)cc2)cc1)c1ccccc1` (centres unmarked) [Compound 112, 3-{4-[(4-{[(2Z)-2-(Methoxyimino)-2-phenylethyl]oxy}benzyl)oxy]phenyl}-3-phenylpropanoic acid] the figure was > 100 nM; with `CO/N=C(/COc1ccc(COc2ccc(C(C#N)CC(=O)O)cc2)cc1)c1ccccc1` (single isomer, unassigned) [Compound 100, 3-Cyano-3-{4-[(4-{[(2E)-2-(methoxyimino)-2-phenylethyl]oxy}benzyl)oxy]phenyl}propanoic acid], 10 to 100 nM.
Consider `CO/N=C(\COc1ccc(COc2ccc3c(c2)OCC3CC(=O)O)cc1)c1ccccc1` (centres unmarked) [Compound 73, {6-[(4-{[(2Z)-2-(Methoxyimino)-2-phenylethyl]oxy}benzyl)oxy]-2,3-dihydro-1-benzofuran-3-yl}acetic acid], for which the EC50 fell in the range of 10 to 100 nM.
Consider `CO/N=C(/COc1ccc(COc2ccc(C(C#N)CC(=O)O)cc2)cc1F)c1ccccc1` (racemic) [Compound 21, 3-Cyano-3-{4-[(3-fluoro-4-{[(2E,2Z)-2-(methoxyimino)-2-phenylethyl]oxy}benzyl)oxy]phenyl}propanoic acid], for which the EC50 lay within 10 to 100 nM.
For `CO/N=C(\COc1ccc(COc2ccc(CCC(=O)O)c(CC#N)c2)cc1)c1ccccc1` [Compound 44, 3-{2-(Cyanomethyl)-4-[(4-{[(2Z)-2-(methoxyimino)-2-phenylethyl]oxy}benzyl)oxy]phenyl}propanoic acid], the EC50 was > 100 nM.

The values above are taken from patent US9278915B2, “Agonists of GPR40” (CONNEXIOS LIFE SCIENCES PVT LTD, priority 2010, dated 2016).
